Results taken from publication PMC10589313 (Nature Communications, 2023).
Several values for one entry are separate records, joined by “and”; a condition that tells them apart may be missing. Equal entries are not always repeated.

Assays:
human H4R Q347G mutant = target: T1, human H4R Q347G mutant (Homo sapiens, UniProt Q9H3N8, Q347G); experiment: TGFα shedding assay, H4R Q347G mutant; format: cell-based
T1 construct: a mutant H4R (human, full-length, and untagged); expressed in transfected cells; host or cells: HEK293A
Description: (§1) The mutants were prepared using the primers listed in Supplementary Table 2. […] The chimeric Gαq/i1 subunit comprises the Gαq backbone and Gαi1-derived six-amino acid C-terminus and couples with Gi-coupled H4R but induces a Gq-dependent TGFα shedding response. After culturing for 1 day and incubating at 37 °C in a 5% CO2 incubator, the transfected cells were harvested by trypsinization, neutralized with Dulbecco’s modified Eagle’s medium containing 10% fetal calf serum (FCS) and penicillin–streptomycin, washed once with Hank’s balanced salt solution (HBSS) containing 5 mM of HEPES (pH 7.4), and resuspended in 6 mL of the HEPES-containing HBSS. The cell suspension was seeded into a 96-well plate at a volume of […] per well (typically, 48 wells per transfected cells) and incubated for 30 min in the CO2 incubator. Test compounds (10×, diluted in 0.01% BSA and 5 mM of HEPES-containing HBSS, […] volume) were added to duplicate wells and incubated for 1 h. After centrifugation, the conditioned medium ([…]) was transferred to an empty 96-well plate. AP reaction solution [10 mM of p-nitrophenylphosphate (p-NPP), 120 mM of Tris–HCl (pH 9.5), 40 mM of NaCl, and 10 mM of MgCl2] was dispensed into the cell culture plates and plates containing conditioned media ([…]). Absorbance was measured at 405 nm before and after a 1-h incubation period at 25 °C using a microplate reader (iMark™ Microplate Absorbance Reader; BioRad). Ligand-induced AP-TGFα release was calculated as previously described. The vehicle-treated AP-TGFα release signal was set as a baseline unless otherwise specified. AP-TGFα release signals were fitted with a four-parameter sigmoidal concentration-response curve, from which EC50 and Emax values were obtained, using GraphPad Prism 9 software (GraphPad Prism). Negative values of logarithmically transformed EC50 values (pEC50) were used to calculate the mean and standard error of independent experiments.
(§2) All functional study data were analyzed using Prism 9 (GraphPad) and are presented as mean ± standard error of the mean (SEM) of three independent experiments. Statistical analyses were performed using Prism 9 (GraphPad) with one-way analysis of variance followed by Dunnett’s post-hoc test. Values with p < 0.05 are considered statistically significant.

human H4R Y319A mutant = target: T2, human H4R Y319A mutant (Homo sapiens, UniProt Q9H3N8, Y319A); experiment: TGFα shedding assay, H4R Y319A mutant; format: cell-based
T2 construct: a mutant H4R (human, full-length, and untagged); expressed in transfected cells; host or cells: HEK293A
Description: as §1, §2

human H4R W348Y mutant = target: T3, human H4R W348Y mutant (Homo sapiens, UniProt Q9H3N8, W348Y); experiment: TGFα shedding assay, H4R W348Y mutant; format: cell-based
T3 construct: a mutant H4R (human, full-length, and untagged); expressed in transfected cells; host or cells: HEK293A
Description: as §1
(§3) All functional study data were analyzed using Prism 9 (GraphPad) and are presented as mean ± standard error of the mean (SEM) of three independent experiments. […]

human H4R W348A mutant = target: T4, human H4R W348A mutant (Homo sapiens, UniProt Q9H3N8, W348A); experiment: TGFα shedding assay, H4R W348A mutant; format: cell-based
T4 construct: a mutant H4R (human, full-length, and untagged); expressed in transfected cells; host or cells: HEK293A
Description: as §1, §3

human H4R D94A mutant = target: T5, human H4R D94A mutant (Homo sapiens, UniProt Q9H3N8, D94A); experiment: TGFα shedding assay, H4R D94A mutant; format: cell-based
T5 construct: a mutant H4R (human, full-length, and untagged); expressed in transfected cells; host or cells: HEK293A
Description: as §1, §3

human H4R N147W mutant = target: T6, human H4R N147W mutant (Homo sapiens, UniProt Q9H3N8, N147W); experiment: TGFα shedding assay, H4R N147W mutant; format: cell-based; conditions: for EC50: EC50 (nM)
T6 construct: a mutant H4R (human, full-length, and untagged); expressed in transfected cells; host or cells: HEK293A
Description: as §1, §2

H1R = conditions: in words; cited from earlier work
human H4R N147Y mutant = target: T7, human H4R N147Y mutant (Homo sapiens, UniProt Q9H3N8, N147Y); experiment: TGFα shedding assay, H4R N147Y mutant; format: cell-based; conditions: for EC50: EC50 (nM)
T7 construct: a mutant H4R (human, full-length, and untagged); expressed in transfected cells; host or cells: HEK293A
Description: as §1, §2

[1] = Imetit (M) -5 (log concentration), raw replicate values

T1 sequence (Q9H3N8 whole entry Q347G): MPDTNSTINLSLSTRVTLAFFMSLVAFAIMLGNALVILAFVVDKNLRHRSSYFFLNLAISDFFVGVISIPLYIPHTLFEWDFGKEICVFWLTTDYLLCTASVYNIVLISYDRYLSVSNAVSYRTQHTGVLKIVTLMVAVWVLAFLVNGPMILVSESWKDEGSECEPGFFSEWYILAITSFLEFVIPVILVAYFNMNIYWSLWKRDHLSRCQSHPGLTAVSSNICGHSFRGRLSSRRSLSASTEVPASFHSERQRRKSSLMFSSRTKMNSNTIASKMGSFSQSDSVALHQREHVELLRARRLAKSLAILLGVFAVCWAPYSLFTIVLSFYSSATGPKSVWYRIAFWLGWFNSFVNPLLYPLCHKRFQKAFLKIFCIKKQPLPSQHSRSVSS
T2 sequence (Q9H3N8 whole entry Y319A): as the sequence (Q9H3N8 whole entry Q347G) above, with Y319A, G347Q counted along it
T4 sequence (Q9H3N8 whole entry W348A): as the sequence (Q9H3N8 whole entry Q347G) above, with G347Q, W348A counted along it
T5 sequence (Q9H3N8 whole entry D94A): as the sequence (Q9H3N8 whole entry Q347G) above, with D94A, G347Q counted along it
T7 sequence (Q9H3N8 whole entry N147Y): as the sequence (Q9H3N8 whole entry Q347G) above, with N147Y, G347Q counted along it
T6 sequence (Q9H3N8 whole entry N147W): as the sequence (Q9H3N8 whole entry Q347G) above, with N147W, G347Q counted along it
T3 sequence (Q9H3N8 whole entry W348Y): as the sequence (Q9H3N8 whole entry Q347G) above, with G347Q, W348Y counted along it

N=C(N)SCCc1cnc[nH]1 [Imetit, imetit]
signaling activity at mutant, in words (human H4R Q347G mutant; Q347G (H1R/H2R type) mutant vs wild type): slight increase
fold of change (human H4R Q347G mutant; Q347G mutant, EC50 relative to WT): 0.2 fold
EC50 (human H4R Q347G mutant; pEC50, Q347G, single experiments, source data Figure 4e-f): 0.0123 µM
EC50 (human H4R Q347G mutant; pEC50 mean ± SEM, Q347G mutant): 0.00468 µM
Emax (human H4R Q347G mutant; read-out: Emax (%) mean ± SEM): 12.9 ± 1.22%
EC50 (human H4R Y319A mutant; EC50 (nM), Y319A mutant): 159 nM
Shedding assay response, Y319A (human H4R Y319A mutant; [1]): 15.1866 and 16.9873 and 18.1596 and 17.4201 and 15.3203 and 22.2497 and 14.1035 and 13.1515 and 10.7745
fold of change (human H4R Y319A mutant; Y319A mutant, EC50 relative to WT): 5.3 fold
EC50 (human H4R Y319A mutant; pEC50 mean ± SEM, Y319A mutant): 141 nM
Emax (human H4R Y319A mutant; read-out: Emax (%) mean ± SEM): 15.8 ± 1.58%
EC50 (human H4R W348Y mutant): > 10 µM
Shedding assay response, W348Y (human H4R W348Y mutant; [1]): 5.993 and 7.639 and 4.713 and 7.402 and 9.589 and 3.141 and 9.854 and 11.9801 and 8.402
signaling activity at mutant, in words (human H4R W348Y mutant; W348Y (H1R mimic) mutant vs wild type): loss of imetit activity
EC50 (human H4R W348A mutant): > 10 µM
Shedding assay response, W348A (human H4R W348A mutant; [1]): 2.59 and 2.574 and 7.329 and -2.233 and 0.1771 and -0.5753 and 0.3498 and -1.339 and 0.3261
EC50 (human H4R D94A mutant): > 10 µM
Shedding assay response, D94A (human H4R D94A mutant; [1]): -0.3449 and 0.03257 and -1.499 and 0.2405 and 1.217 and -0.1126 and 0.7155 and 3.933 and 12.3814
EC50 (human H4R N147W mutant; N147W mutant): 603 nM
EC50 (human H4R N147W mutant; N147W, single experiments, source data Figure 4e-f): 569 nM and 612 nM and 627 nM
Shedding assay response, N147W (human H4R N147W mutant; [1]): 17.8239 and 17.9174 and 17.7465 and 15.1009 and 14.2938 and 15.4251 and 18.7186 and 19.6688 and 18.9313
fold of change (human H4R N147W mutant; N147W mutant, EC50 relative to WT): 20.2 fold
Emax (human H4R N147W mutant; read-out: Emax (%) mean ± SEM): 18.4 ± 1.29%
binding to H1R (H1R): does not bind
EC50 (human H4R N147Y mutant; N147Y mutant): 319 nM
EC50 (human H4R N147Y mutant; N147Y, single experiments, source data Figure 4e-f): 632 nM and 127 nM and 200 nM
Shedding assay response, N147Y (human H4R N147Y mutant; [1]): 5.667 and 6.627 and 11.6194 and 11.6248 and 10.5662 and 9.653 and 14.7457 and 12.0475 and 16.0734
fold of change (human H4R N147Y mutant; N147Y mutant, EC50 relative to WT): 10.7 fold
Emax (human H4R N147Y mutant; read-out: Emax (%) mean ± SEM): 11.1 ± 1.47%
